A short description of data set [1]: Trace element solutions with different chelating agents: pH, color and precipitation. Format: physicochemical. As to conditions: for color development and clarity of trace element solution after final mixing: after addition of Na2MoO4 and final mixing (EDTA: after pH adjustment to pH 4); for measured pH value of trace element solution: after addition of all salts and final mixing, chelating agent equimolar to divalent cations; for precipitation of trace element solution after storage for 24 h and pH adjustment to pH 6: storage 24 h at room temperature or 4° C., pH readjusted to pH 6; for complexation and precipitation compared with citrate (summary): trace element solutions. The text has this:
A trace element solution was mixed together with one of the following chelating agents: citric acid, […], DTPA, EGTA, or […]. Therefore, at first each chelating agent was weight equimolar to the utilized divalent cations. […] After each compound supplementation the solutions were characterized regarding pH value, color and precipitation. After the addition of the last compound, i.e., Na2MoO4, the solutions were aliquoted. […] Afterwards samples were again characterized by pH value, color and precipitation behavior.

In data set [2] the test system is Bacillus licheniformis producing a subtilisin protease. In words: Microtiter plate cultivation, biomass growth by scattered light. Format: cell-based. As to conditions: μL scale; for development of biomass (scatter plot) / maximal biomass values lower compared to MGDA or NTA: 30° C., 48 h; for development of biomass (scatter plot): chelating agent equimolar; for higher scatter (growth and maximal scatter values) compared to citric acid, EGTA, HEEDTA, DTPA and EDTA: FIG. 1. The procedure: Glucose was supplied in total in an amount of 14 g/I for a cultivation time of 48 h. […] The different fermentation media were aliquoted to a BioLector Flowerplate/microtiter plate […] labs) 700 μL each and cultivated at 30° C., shaker frequency 1200 rpm for 48 h after inoculating with Bacillus licheniformis producing a subtilisin protease. During the cultivation oxygen partial pressure, pH and scattered light for biomass growth are measured online by optical sensors every 15 min.

The test system is the same in data set [3]. As to the kind of experiment: Protease formation in microtiter plate cultivation, casein based activity assay. Format: cell-based. The note with it: normalized activity units; for enzyme (protease) activity lower than with citrate: comparable for pH 6.7 and pH 7.7, μL scale; for enzyme (protease) activity compared with citrate: trace element solution pH 6.7 and pH 7.7, μL scale. The procedure:
Glucose was supplied in total in an amount of 14 g/I for a cultivation time of 48 h. […] The different fermentation media were aliquoted to a BioLector Flowerplate/microtiter plate […] labs) 700 μL each and cultivated at 30° C., shaker frequency 1200 rpm for 48 h after inoculating with Bacillus licheniformis producing a subtilisin protease. During the cultivation oxygen partial pressure, pH and scattered light for biomass growth are measured online by optical sensors every 15 min. For characterization of protease formation enzyme activity was measured by casein based activity assay.

For data set [4] the test system is unchanged. In words: Fed-batch cultivation process in 20 L scale, protease formation. Format: cell-based. As to conditions: 20 L scale fed-batch; for STY (productivity), space time yield normalized to % / Titer (productivity), normalized to %: 37° C., pH 7.7, 2 mL/L chelating agent, citric acid = 100%. The procedure:
The fermentation processes were conducted in a baffled stirred tank reactor (STR) with pH, pO2 and temperature probes in a medium with glucose as main carbon source and complex plant protein as N-source. The concentration of O2 and CO2 were monitored by gas analyses. For the cultivations, the fedbatch mode was chosen with a start working volume of 10 L. As bioreactors, 21 L steal vessels were used with 3 rushton turbines with 6 blades.
Medium preparation and sterilization for seed and main culture medium took place in the bioreactor, respectively. The medium contained complex plant protein, NH4H2PO4, KH2PO4, Mn(II)SO4*H2O, Fe(II)SO4*7H2O, MgSO4*7H2O, Ca(NO3)2*4 H2O, trace element solution as described above, antifoam and 2 mL/L MGDA or citric acid. pH was adjusted to pH 6.5. The medium was sterilized in the bioreactor under stirred conditions (600 rpm) for 60 min at 121° C. For inoculation with Bacillus licheniformis producing a subtilisin protease 2% of the starting working volume was used from a seed culture fermenter with the same medium. Seed culture cultivation was conducted at 37° C. and harvested during exponential growth phase after 16 h. The main cultivation was conducted at 37° C., with pO2 dependent stirred cascade from 350-1400 rpm, pH 7.7 and an aeration rate of 1.5 wvvm. The glucose feed was started 8 h after inocu lation.

The nature of data set [5]: Fermentation medium with trace element solutions and different chelating agents: precipitation. It counts as physicochemical. As to conditions: for precipitation in fermentation medium, pH adjustment to 6: samples with pH adjustment to 6; for precipitation in fermentation medium, pH adjustment to 6 / precipitation in fermentation medium, pH adjustment to 7.7: 24 h storage; for precipitation in fermentation medium, pH adjustment to 7.7: samples with pH adjustment to 7.7. The procedure:
A fermentation medium was mixed with different chelating agents. Therefore, deionized water, Ca(NO3)2*4 H2O, MgSO4*7H2O, NH4H2PO4, and KH2PO4 were mixed together in this certain order with the respective chelating agent. Each chelating agent was weight equimolar to the utilized divalent cations. Afterwards the pH is measured. All three media were aliquoted six times each. Three aliquots of each medium were adjusted to pH 6.7, the other three samples to pH 7.7. Samples were mixed with the trace element solutions as described in Example 1 and stored at 35° C., room temperature and 4° C. for 24 h. Then color formation and precipitation were characterized.

On to `O=C(O)CN(CCN(CC(=O)O)CC(=O)O)CCN(CC(=O)O)CC(=O)O` [DTPA, diethylene triamine pentaacetic acid], for which, in data set [1], the “color development and clarity of trace element solution after final mixing” value (shortened to “color development and clarity”) was “dark green and was a clear solution”; the “measured pH value of trace element solution” value (shortened to “measured pH value”) was determined as 2.6; the “precipitation of trace element solution after storage for 24 h and pH adjustment to pH 6” value (“precipitation … to pH 6” below) is recorded as “no precipitation was detected”; the “complexation and precipitation compared with citrate (summary)” value is recorded as “better results than citrate”. Besides, the “development of biomass (scatter plot)” value in data set [2] is “no growth was detected”.
Turning to `O=C(O)CN(CCN(CC(=O)O)CC(=O)O)CC(=O)O` [EDTA, ethylene diamine tetraacetic acid], in data set [1], the “color development and clarity” value is “blue and clear solution”; the “measured pH value” value is listed as 3; the “precipitation … to pH 6” value is reported as “no further precipitation was noticed”. The “precipitation on supplementation of CuSO4” value in data set [1] (during preparation of the trace element solution) is “strong white precipitates occurred”. Moreover, the “development of biomass (scatter plot)” value in data set [2] is given as “no growth was detected”.
`O=C(O)CN(CCOCCOCCN(CC(=O)O)CC(=O)O)CC(=O)O` [EGTA, ethylene glycol tetraacetic acid]: in data set [1], the “color development and clarity” value is “dark blue and was a clear solution”; the “measured pH value” value came out at 2.7; the “precipitation … to pH 6” value was “the solution turned darker and brownish”. Besides, in data set [2], the “maximal biomass values lower compared to MGDA or NTA” value is “about 20%” and the “development of biomass (scatter plot)” value was “biomass growth started delayed”. Also, the “enzyme (protease) activity lower than with citrate” value in data set [3] is “about 25%”.
On to `O=C(O)CC[C@@H](C(=O)O)N(CC(=O)O)CC(=O)O` [GLDA, glutamic acid N,N-diacetic acid], for which, in data set [1] (3 h at 4° C.), the “precipitation of trace element solution after storage for 3 h at 4° C.” value is on record as “precipitates were detected”. In data set [1], the “color development and clarity” value is “light blue and was a crystal clear solution”; the “measured pH value” value is 3.7; the “precipitation … to pH 6” value is listed as “precipitates were formed”.
As to `O=C(O)CN(CCO)CCN(CC(=O)O)CC(=O)O` [HEEDTA, hydroxyethylethylene diamine triacetic acid], in data set [1], the “color development and clarity” value is “dark blue and was a clear solution”; the “measured pH value” value is on record as 2.6; the “precipitation … to pH 6” value is “no precipitation was detected”; the “complexation and precipitation compared with citrate (summary)” value is given as “better results than citrate”. The “development of biomass (scatter plot)” value in data set [2] was “strong delayed growth and lower biomass development”. Also, the “enzyme (protease) activity lower than with citrate” value in data set [3] came out at 60%.
Regarding `CC(C(=O)O)N(CC(=O)O)CC(=O)O` (stereo not shown) [MGDA, methyl glycine diacetic acid], in data set [1], the “color development and clarity” value is “green blue and crystal clear solution”; the “measured pH value” value was determined as 2.8; the “precipitation … to pH 6” value is “Neither after storage for 24 h nor after pH adjustment to pH of 6 any precipitates occurred”; the “complexation and precipitation compared with citrate (summary)” value was “better results than citrate”. In data set [4], the “product titer and space time yields versus citric acid” value is “higher product titer and space time yields”; the “STY (productivity), space time yield normalized to %” value stood at 110%; the “Titer (productivity), normalized to %” value was 104%. Further, in data set [2], the “development of biomass (scatter plot)” value is “fastest growth and highest values”; the “higher scatter (growth and maximal scatter values) compared to citric acid, EGTA, HEEDTA, DTPA and EDTA” value is listed as 20%. The “enzyme (protease) activity compared with citrate” value in data set [3] is recorded as “on a comparable level as the prior art standard citrate”. Besides, in data set [5], the “precipitation in fermentation medium, pH adjustment to 6” value is “low precipitations” and the “precipitation in fermentation medium, pH adjustment to 7.7” value is recorded as “no precipitations occurred”.
With `O=C(O)CN(CC(=O)O)CC(=O)O` [NTA, nitrilotriacetic acid], in data set [1], the “color development and clarity” value was “emerald green and was a crystal clear solution”; the “measured pH value” value is reported as 2.5; the “precipitation … to pH 6” value was “Neither after storage time of 24 h nor after pH adjustment to pH of 6 any precipitates occurred”; the “complexation and precipitation compared with citrate (summary)” value is reported as “better results than citrate”. Moreover, in data set [2], the “development of biomass (scatter plot)” value is “fastest growth and highest values”; the “higher scatter (growth and maximal scatter values) compared to citric acid, EGTA, HEEDTA, DTPA and EDTA” value is 20%. In addition, in data set [3], the “enzyme (protease) activity compared with citrate” value is listed as “on a comparable level as the prior art standard citrate”. Besides, in data set [5], the “precipitation in fermentation medium, pH adjustment to 6” value is given as “low precipitations” and the “precipitation in fermentation medium, pH adjustment to 7.7” value is “no precipitations occurred”.
For `O=C(O)CC(O)(CC(=O)O)C(=O)O` [citric acid], in data set [1], the “color development and clarity” value is “emerald green and was a crystal clear solution”; the “measured pH value” value is reported as 4.6; the “precipitation … to pH 6” value is recorded as “precipitates formed a red pellet”. In addition, in data set [4], the “STY (productivity), space time yield normalized to %” value amounted to 100% and the “Titer (productivity), normalized to %” value is 100%. In data set [2], the “maximal biomass values lower compared to MGDA or NTA” value is “about 20%” and the “development of biomass (scatter plot)” value was “biomass growth started delayed”. Moreover, the “precipitation in fermentation medium” value in data set [5] (all samples, pH 6.7 and 7.7, 35° C., room temperature and 4° C. for 24 h) was “strong precipitations in all samples”.

Values taken from patent US20190292514A1, “FERMENTATION MEDIUM COMPRISING CHELATING AGENT” (priority 2016, published 2019).
